In brackets after ≈: the same amount, converted by molar mass. Several values for one entry are separate records, joined by “and”; a condition that tells them apart may be missing. Equal entries are not always repeated. Where two headings read alike, the source gives them in different places.
Key:
[1] = test system: E. coli K12 MG1655; experiment: MIC testing by CLSI broth microdilution in M9-based minimal media ATCC 2511, with or without methionine; assay type: cell-based, Escherichia coli; details: for MIC90: Escherichia coli
Experimental: To explore the SAR around the right hand aryl portion of the TAT series (Table 1), compounds were evaluated for their in vitro antibacterial activity against E. coli in the M9-based minimal media ATCC 2511. […]. An MIC shift between the two medias was used to indicate that antibacterial activity of the compounds remained on target, and this was happily seen with all of the most MIC active compounds generated in this study. Within the first series of compounds in Table 1, modifications to the phenyl ring are generally well tolerated. MICs remain within 2-fold of the initial hit 1 for the fluoro- and cyano- substituted compounds 1–8. […]. Incorporating the electron-donating group -OMe and sterically bulky iodine group in both ortho and para position, 17–20, maintained activity, whereas the introduction of the strong electron-withdrawing -CF3 group, 21 and 22, led to poorer MIC activity. […] The phenyl ring isosteres—thiazoles 25 and 26—both retained good MIC activity. Adding a methyl branch to the thioacetamide linker 28 and 29 led to a striking loss of activity. Replacement of the aryl group with the aliphatic groups cyclohexyl 31, cyclopentyl 32, tert-butyl groups 33 all reduced activity.
MICs were determined following CLSI broth microdilution susceptibility M100 guidelines. Compound solutions were prepared in DMSO and serially diluted 1:2 in 100 μL/well in 96 well round-bottom plates. E. coli K12 MG1655 was acquired from ATCC and strictly maintained in the M9-based media ATCC 2511. ATCC 2511 was also used for all further cultivation and MIC testing. Bacteria were grown from a single colony to a mid-log OD600 and frozen in 0.5 mL aliquots. These aliquots were used to directly inoculate the assay plates by diluting to an OD600 of 0.001 and plating 100 μL per well, allowing for ~10^5 CFU to be added to each well.

[2] = Metabolic (microsomal) stability (mouse); assay type: in vitro ADME; details: microsomes; for half-life: read-out: Metabolic Stability (Mouse) t1/2 (converted)
Experimental: (§1) The in vitro ADME values (solubility, mouse plasma stability, human plasma stability, mouse metabolic stability, and human metabolic stability) were determined as previously reported.

[3] = Pharmacokinetic evaluation in mice, single intravenous dose; assay type: in vivo; details: 10 mg/kg, plasma
Experimental: Pharmacokinetic parameters of 25 in plasma following a single intravenous dose of 10mg/kg administration to male Balb/c mice were done at SAI LifeSciences Ltd., Telangana, India (Table S2). Briefly, nine male mice were used in this study. All the animals were administered with 25 solution formulation in 5% NMP, 5% Solutol HS-15 and 90% Normal saline intravenously at 10 mg/kg dose. Blood samples (~60 μL) were collected from retro orbital plexus under light isoflurane anesthesia at following time points at Pre-dose, 0.08, 0.25, 0.5, 1, 2, 4, 8 and 24 h. Blood samples were collected from a set of three mice at each time point (sparse sampling) in labeled microcentrifuge tube containing 20% K2EDTA solution as anticoagulant. Plasma samples were separated by centrifugation of whole blood and stored below −70 ± 10 °C until bioanalysis. All samples were processed for analysis by protein precipitation using acetonitrile (ACN) and analyzed with fit-for-purpose LC/MS/MS method (LLOQ: 5.04 ng/mL). Pharmacokinetic parameters were calculated using the non-compartmental analysis tool of Phoenix WinNonlin (Version 7.0). All procedures of the study were in accordance with the guidelines provided by the Committee for the Purpose of Control and Supervision of Experiments on Animals (CPCSEA) as published in The Gazette of India, 15 December 1998. Prior approval of the Institutional Animal Ethics Committee (IAEC) was obtained before initiation of the study.

[4] = Metabolic (microsomal) stability (human); assay type: in vitro ADME; details: microsomes; for half-life: read-out: Metabolic Stability (Human) t1/2 (converted)
Experimental: as §1

[5] = Plasma stability (human); assay type: in vitro ADME; details: read-out: Plasma Stability (Human) t1/2 (converted)
Experimental: as §1

[6] = Plasma stability (mouse); assay type: in vitro ADME; details: read-out: Plasma Stability (Mouse) t1/2 (converted)
Experimental: as §1

[7] = Solubility; assay type: physicochemical; details: for solubility: pH 7.4, aqueous buffer
Experimental: as §1

[8] = test system: E. coli K12; experiment: Whole cell accumulation in E. coli K12 (LC-MS/MS); set-up: dose or concentration left out as unconfirmed; details: 10 min, 37 °C; average of three biological replicates
Experimental: Drug uptake in whole cell E. coli K12, was performed following a modified protocol adapted from previously published studies [17, 25, 26, 27]. […] After incubation, 800 mL of antibiotic-exposed cells were spun (3 min, 13,000× g) through 700 mL of a 9:1 mix of AR20 and high temperature silicon oils (cooled to −80°C). The supernatant of silicone oil and free compound in PBS was carefully removed from pellet. Intracellular concentration of antibiotics within the bacterial cells was then determined.
For lysis, cells were resuspended in 200 mL of water and lysed by three freeze-thaw cycles of 3 min each in liquid nitrogen and in a 60 °C water bath. Lysed cells were pelleted and 150 mL of aqueous extract was transferred to a clean 1.5 mL microcentrifuge tube. Cell debris was resuspended in the remaining 50 mL of water and then extracted with 100 mL of methanol. Cells were again centrifuged, 100 mL of the methanol extract were removed and combined with the water supernatant. The extracts were allowed to rest at room temperature for 1 h before being centrifuged for 10 min at 20,000× g. Finally, extracts were filtered through a 0.22mm spin column to remove any remaining cellular debris.
Samples were analyzed with a Waters Acquity M Class series UPLC system and Xevo G2 QTOF tandem MS/MS with Zspray. Using a Phenomenex Kinetex 2.6 μm XB-C18, 100 Å (300 μm × 150 mm) column with solvent A, 0.1% formic acid in water, and solvent B, 0.1% formic acid in acetonitrile, 250 nL of extract were separated. […] High-resolution spectra were calibrated by co-infusion of 2 ng/mL leucine enkephalin lockspray (Waters). Data were quantified using Waters MassLynx software where the AUC was determined by integrating the daughter peak of the parent ion. Concentrations of the unknown compounds were determined by the linear fit of the standard curve. Concentrations were normalized to the culture density, determined via titers, to 10^10 CFU and are reported as the average of three biological replicates.

[9] = MG1655, read-out: E. coli K12 MIC90
[10] = No Supplement (N.S.), ATCC 2511 media, 16 h, 37 °C, read-out: E. coli K12 MIC90
[11] = No Supplement (N.S.), ATCC 2511 media, 16 h, 37 °C
[12] = pH 7.4 (Table S1), read-out: Solubility Avg. Sol
[13] = pH = 7.4, average of triplicate ± standard deviation
[14] = pH = 7.4, average of triplicate ± standard deviation, read-out: Avg. Sol

O=C(CSc1cnn[nH]1)Nc1nccs1 [Compound 25]
MIC90 [1, 9]: 12.5 µg/mL (≈ 51.8 µM)
MIC90 [1, 10]: 3.1 µg/mL (≈ 12.8 µM)
E. coli K12 MIC90 [1, 11]: ≤ 3.1 µg/mL
CLint scaled [2]: 29.1 mL/min/kg
half-life [2]: 2 ± 0.1 h
AUCinf ([3]; male Balb/c mice): 2807 ng·h/mL
AUC(0-inf) ([3]; male, Balb/c, mouse, iv): 2810 ng·h/mL
AUC(0-t) ([3]; mouse, male Balb/c mice): 2800 ng·h/mL
C0 ([3]; mouse, male Balb/c mice): 7710 ng/mL
clearance ([3]; mouse, male Balb/c mice): 59.4 mL/min/kg
half-life ([3]; mouse, male Balb/c mice, read-out: T(1/2), elimination half-life (converted)): 0.55 h
Vd ([3]; mouse, male Balb/c mice, read-out: Vss): 1.16 L/kg
CLint scaled [4]: 5.8 mL/min/kg
half-life [4]: 3.6 ± 0.3 h
half-life [5]: 32.1 ± 5.4 h
half-life [6]: 13.3 ± 1.6 h
%Soluble ([7]; pH 7.4 (Table S1)): 87.3%
solubility [7, 12]: 21.1 µg/mL and 87.3 µM
Avg. Sol [7, 13]: 21 ± 1.8 µg/mL

O=C(CSc1cnn[nH]1)Nc1ccccc1F [Compound 1]
MIC90 [1, 9]: 12.5 µg/mL (≈ 49.5 µM)
MIC90 [1, 10]: 1.6 µg/mL (≈ 6.34 µM)
E. coli K12 MIC90 [1, 11]: ≤ 3.1 µg/mL
CLint scaled [2]: 209 mL/min/kg
half-life [2]: 0.27 ± 0.01 h
CLint scaled [4]: 7 mL/min/kg
half-life [4]: 3 ± 0.2 h
half-life [5]: 34.8 ± 0.3 h
half-life [6]: 0.39 ± 0.01 h
%Soluble ([7]; pH 7.4 (Table S1)): 65.2%
solubility [7, 12]: 16.4 µg/mL and 65.2 µM
solubility [7, 14]: 16 ± 0.8 µg/mL (≈ 63.4 µM)

CN1CCN(c2ccc(NC(=O)CSc3cnn[nH]3)cc2)CC1 [Compound 56]
MIC90 [1, 10]: > 200 µg/mL
Whole Cell Accumulation in E. coli [8]: 4.7 ± 2 μM/10^10 CFU

O=C(CSc1cnn[nH]1)Nc1ccc(N2C[C@@H]3NCCO[C@H]3C2)cc1 [Compound 53]
MIC90 [1, 10]: > 200 µg/mL
Whole Cell Accumulation in E. coli [8]: 19 ± 1 μM/10^10 CFU

O=C(CSc1cnn[nH]1)Nc1ccccn1 [Compound 9]
MIC90 [1, 9]: 12.5 µg/mL (≈ 53.1 µM)
MIC90 [1, 10]: 1.6 µg/mL (≈ 6.8 µM)
E. coli K12 MIC90 [1, 11]: ≤ 3.1 µg/mL
CLint scaled [2]: 80.4 mL/min/kg
half-life [2]: 0.71 ± 0.02 h
CLint scaled [4]: 7.7 mL/min/kg
half-life [4]: 2.7 ± 0.2 h
half-life [5]: 19.9 ± 1.9 h
half-life [6]: 2.7 ± 0.2 h
%Soluble ([7]; pH 7.4 (Table S1)): 87.4%
solubility [7, 12]: 20.6 µg/mL and 87.4 µM
solubility [7, 14]: 20 ± 0.3 µg/mL (≈ 85 µM)

N[C@H]1CCN(c2ccc(NC(=O)CSc3cnn[nH]3)cc2)C1 [Compound 50]
MIC90 [1, 10]: > 200 µg/mL
Whole Cell Accumulation in E. coli [8]: 9.0 ± 2 μM/10^10 CFU

N#Cc1ccccc1NC(=O)CSc1cnn[nH]1 [Compound 3]
MIC90 [1, 9]: 12.5 µg/mL (≈ 48.2 µM)
MIC90 [1, 10]: 3.1 µg/mL (≈ 12 µM)
CLint scaled [2]: 50.5 mL/min/kg
half-life [2]: 1.13 ± 0.05 h
CLint scaled [4]: 5.7 mL/min/kg
half-life [4]: 3.7 ± 0.3 h
half-life [5]: 23 ± 1.1 h
half-life [6]: 1.1 ± 0.02 h
%Soluble ([7]; pH 7.4 (Table S1)): 73.3%
solubility [7, 12]: 19 µg/mL and 73.3 µM
Avg. Sol [7, 13]: 19 ± 1.5 µg/mL

O=C(CSc1cnn[nH]1)Nc1ccc(F)cc1 [Compound 2]
MIC90 [1, 9]: 12.5 µg/mL (≈ 49.5 µM)
MIC90 [1, 10]: 3.1 µg/mL (≈ 12.3 µM)
CLint scaled [2]: 87.4 mL/min/kg
half-life [2]: 0.65 ± 0.03 h
CLint scaled [4]: 4.4 mL/min/kg
half-life [4]: 4.7 ± 0.4 h
half-life [5]: 36.3 ± 5.5 h
half-life [6]: 2.5 ± 0.2 h
%Soluble ([7]; pH 7.4 (Table S1)): 73.4%
solubility [7, 12]: 18.5 µg/mL and 73.4 µM
solubility [7, 14]: 18 ± 2.3 µg/mL (≈ 71.4 µM)

From PMC8911640, “Synthesis and Structure–Activity Relationship of Thioacetamide-Triazoles against Escherichia coli” (Molecules, 2022)
